Values quoted from earlier work as cited in patent US5962457A, “2,3 Disubstituted- (5,6)-heteroarylfused-pyrimidine-4-ones” (Pfizer Inc., priority 1997, dated 1999).

What was measured:
[1] = rat global ischemia models; LaPeillet et al.
[2] = focal and global ischemia models; Sheardown et al., Buchan et al., LePeillet et al.

Row | SMILES | neuroprotection in global ischemia [1] | prevention of global and focal ischemic damage [2]
1 | CC1=NN=C(c2ccc(N)cc2)c2cc3c(cc2C1)OCO3 [GKYI 52466] | effective neuroprotective agent | –
2 | NS(=O)(=O)c1cccc2c1c([N+](=O)[O-])cc1[nH]c(=O)c(=O)[nH]c12 [NBQX, 2,3-dihydroxy-6-nitro-7-sulfamoylbenzo[f-]quinoxaline] | – | effective in preventing global and focal ischemic damage
